# Measurements published in US20170202838A1, “IMMUNOMODULATOR” (TAIHO PHARMACEUTICAL CO., LTD., priority 2015, published 2017).
# Experiments:
# [1] = tested on: C57BL/6N mouse spleen cells mixed with irradiated BALB/c mouse spleen cells; assay: T cell modulation through mixed lymphocyte reaction, 3H-Thd uptake (Example 3); format: cell-based; conditions: allogeneic mixed spleen cells, 3 days culture (FIG. 4)
# From the text: A mixed lymphocyte reaction (MLR) is a representative experimentation technique for T cell modulation described in, for example, J. Exp. Med. 127 (5): 879-90, 1968. The influence of Compound (I) imposed on T cell modulation through this reaction was examined.
# Spleens were extracted from C57BL/6N mice and BALB/c mice, grinded with glass slides with frosted areas, and then subjected to hemolysis, so as to obtain spleen cells. The C57BL/6N mouse spleen cells and the BALB/c mouse spleen cells were introduced into a complete medium (i.e., RPMI-1640 supplemented with 10% heat-inactivated FBS, 100 U/ml penicillin, 100 μg/ml streptomycin, and 55 μM 2-mercaptoethanol). The BALB/c mouse spleen cells were irradiated with 30 Gy X-ray to destroy the growth activity. The spleen cells of these allogeneic mice were each added to the final concentration of 1×10^5 cells/well and mixed (Alo), and Compound (I) or the EGFR tyrosine kinase inhibitor (i.e., AZD09291 or Erlotinib) adjusted to relevant concentrations was added thereto. As a control sample, a mixture of syngeneic C57BL/6N mouse spleen cells (Syn) was also prepared. The culture solution was seeded in a 96-well plate at 200 μl/well and then cultured in an incubator at 37° C. in the presence of 5% CO2 for 3 days. […] The amount of 3H-Thd uptake was measured using a liquid scintillation counter.
# B16F10 [2] = assay: In vitro growth of mouse melanoma cell line B16F10, CellTiter-Glo2.0 (Reference Example 1); format: cell-based; conditions: B16F10, 3 days culture
# Description: The mouse melanoma cell lines B16F10 and K1735M2 and the mouse colon cancer cell line MC38 were seeded in a 96-well plate at 3×10^3 cells/well. Compound (I) or the EGFR tyrosine kinase inhibitor (i.e., Erlotinib, Afatinib, AZD9291, or Co1686 (Rociletinib)) that had been diluted to the given concentration was added 24 hours later. Thereafter, culture was conducted for 3 days, and the number of cells was determined using CellTiter-Glo2.0 (Promega, G9243).
# B16F10 [3] = assay: Pulmonary metastatic nodules after intravenous injection of mouse melanoma cell line, in vivo model (Example 8); conditions: oral 12.5 mg/kg or 50 mg/kg, 14 days after implantation, compared with control group (FIG. 10)
# Description: A cell suspension of the mouse melanoma cell line B16F10 was prepared with the use of PBS(-), and the cell suspension was injected intravenously into the mouse caudal portion at 5×10^5 cells/mouse. Compound (I) was administered orally to the mouse model at 12.5 mg/kg or 50 mg/kg on the previous day of B16F10 implantation. The number of pulmonary metastatic nodules was evaluated 14 days after implantation (i.e., 15 days after drug administration). […] On the basis of the results above and the results of Reference Example 1 such that the tumor growth inhibitory effects were not observed in the in vitro model, it was deduced that the decreased number of pulmonary metastatic nodules was achieved by the immunomodulation activity of Compound (I).
# EGFR tyrosine kinase = EGFR tyrosine kinase (Homo sapiens, UniProt P00533); conditions: known from WO 2013/125709; cited from earlier work
# Chain of EGFR tyrosine kinase (P00533 25-1210): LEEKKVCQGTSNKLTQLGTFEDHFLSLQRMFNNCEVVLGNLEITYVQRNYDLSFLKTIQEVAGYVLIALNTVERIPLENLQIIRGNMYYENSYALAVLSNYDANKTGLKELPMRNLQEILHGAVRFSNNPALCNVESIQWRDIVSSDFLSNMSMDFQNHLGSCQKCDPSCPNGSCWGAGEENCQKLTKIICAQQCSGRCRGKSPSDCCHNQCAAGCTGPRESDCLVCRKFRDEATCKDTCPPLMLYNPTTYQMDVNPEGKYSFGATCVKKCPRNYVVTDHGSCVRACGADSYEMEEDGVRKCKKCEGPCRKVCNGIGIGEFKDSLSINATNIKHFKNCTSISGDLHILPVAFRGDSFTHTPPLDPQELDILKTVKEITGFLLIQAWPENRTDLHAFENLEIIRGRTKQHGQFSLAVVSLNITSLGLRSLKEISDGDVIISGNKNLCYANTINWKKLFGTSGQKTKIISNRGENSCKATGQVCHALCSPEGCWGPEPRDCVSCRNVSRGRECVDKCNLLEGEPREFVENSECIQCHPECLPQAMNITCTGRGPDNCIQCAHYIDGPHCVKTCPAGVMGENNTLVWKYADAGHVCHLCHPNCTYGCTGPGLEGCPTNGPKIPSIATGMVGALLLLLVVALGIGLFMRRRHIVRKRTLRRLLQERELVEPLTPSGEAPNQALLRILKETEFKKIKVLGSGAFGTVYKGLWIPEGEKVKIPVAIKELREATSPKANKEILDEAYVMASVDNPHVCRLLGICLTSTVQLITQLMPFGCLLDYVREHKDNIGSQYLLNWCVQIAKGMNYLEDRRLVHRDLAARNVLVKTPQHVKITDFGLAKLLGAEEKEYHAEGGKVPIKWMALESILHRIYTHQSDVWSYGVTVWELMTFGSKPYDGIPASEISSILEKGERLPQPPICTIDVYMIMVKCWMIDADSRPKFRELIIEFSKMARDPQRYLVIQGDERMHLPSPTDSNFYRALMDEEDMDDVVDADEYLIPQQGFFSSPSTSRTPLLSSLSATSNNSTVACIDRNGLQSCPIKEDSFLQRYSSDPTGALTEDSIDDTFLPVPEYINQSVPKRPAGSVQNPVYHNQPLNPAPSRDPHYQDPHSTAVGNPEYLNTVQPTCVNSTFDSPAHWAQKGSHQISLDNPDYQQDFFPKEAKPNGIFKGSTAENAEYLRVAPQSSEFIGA
structure (smiles),measurement,setting,value
"C=CC(=O)N[C@H]1CCc2c(-c3cnc4ccccc4c3)c3c(N)ncnc3n2C1 [Compound (I), (S)—N-(4-amino-5-(quinolin-3-yl)-6,7,8,9-tetrahydropyrimido[5,4-b]indolizin-8-yl)acrylamide]",amount of 3H-Thd uptake (amount of T cells grown through the mixed lymphocyte reaction),[1],induced the growth of T cells
same,suppression of cell growth (number of cells),B16F10 [2],did not suppress the growth of any cells
same,number of pulmonary metastatic nodules,B16F10 [3],decreased in a dose-dependent manner
same,inhibition of EGFR tyrosine kinase,EGFR tyrosine kinase,inhibit EGFR tyrosine kinase with high selectivity
